Results reported in paper PMC5005338, “Escherichia coli Type III Secretion System 2 ATPase EivC Is Involved in the Motility and Virulence of Avian Pathogenic Escherichia coli” (Frontiers in Microbiology, 2016).

Molecular target: EivC (His-EivC) (Escherichia coli, UniProt A0A160EFI3)
Conditions: 30 min assay; His-tagged protein

Sequence of EivC (His-EivC) (A0A160EFI3 entry or part of it): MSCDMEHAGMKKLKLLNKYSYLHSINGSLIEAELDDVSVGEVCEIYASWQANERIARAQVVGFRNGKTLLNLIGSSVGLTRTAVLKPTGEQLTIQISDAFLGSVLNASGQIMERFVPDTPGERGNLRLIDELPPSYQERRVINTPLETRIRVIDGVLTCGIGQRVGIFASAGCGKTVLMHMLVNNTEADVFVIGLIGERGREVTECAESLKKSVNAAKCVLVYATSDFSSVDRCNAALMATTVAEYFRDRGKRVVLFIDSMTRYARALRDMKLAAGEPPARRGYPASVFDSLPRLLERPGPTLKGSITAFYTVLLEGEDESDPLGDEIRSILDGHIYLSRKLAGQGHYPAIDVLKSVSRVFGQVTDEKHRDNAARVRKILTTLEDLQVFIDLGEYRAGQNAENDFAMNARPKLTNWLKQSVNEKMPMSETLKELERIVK

## Nc1ncnc2c1ncn2[C@@H]1O[C@H](COP(=O)(O)OP(=O)(O)OP(=O)(O)O)[C@@H](O)[C@H]1O [ATP]
  phosphate release, malachite green ATPase assay kit: a His-EivC fusion protein was purified and tested for its ability to hydrolyze ATP
